Laboratory results reported in patent US10751318B2, “Pharmaceutical co-crystal and use thereof” (SYN-NAT PRODUCTS ENTERPRISE LLC, priority 2015, dated 2020).
Several values for one entry are separate records, joined by “and”; a condition that tells them apart may be missing. Identical values can stand only once. Like-named read-outs stand apart in the source and are kept apart here.

Legend:
[1] = tested on: fetal hepatocytes HL-7002; assay: MTS cell viability assay, HL-7002 (kidney cancer study; controls carboplatin, 5-FU); settings: for IC50: read-out: IC50 in HL-7002 cells
[2] = tested on: A498 kidney cancer cell line; assay: MTS cell viability assay, A498 kidney cancer cells; assay type: cell-based
[3] = tested on: human embryonic kidney cell line HEK293; assay: MTS cell viability assay, HEK293 (kidney cancer study; controls carboplatin, 5-FU)
[4] = tested on: ACHN kidney cancer cell line; assay: MTS cell viability assay, ACHN kidney cancer cells; assay type: cell-based; settings: read-out: IC50 to reduce ACHN cell number
[5] = tested on: human embryonic kidney cell line HEK293; assay: MTS cell viability assay, HEK293 (prostate cancer study; controls docetaxel, cisplatin); settings: for toxicity to HEK293 cells: study with docetaxel and cisplatin (FIG. 4)
[6] = tested on: LNCaP prostate cancer cell line; assay: MTS cell viability assay, LNCaP prostate cancer cells; assay type: cell-based, human; settings: 0.01 to 300 μM, read-out: IC50 to reduce LNCaP cell number
[7] = tested on: fetal hepatocytes HL-7002; assay: MTS cell viability assay, HL-7002 (prostate cancer study; controls docetaxel, cisplatin); settings: for IC50: read-out: IC50 to reduce HL-7002 cell number
[8] = tested on: PC-3 prostate cancer cell line; assay: MTS cell viability assay, PC-3 prostate cancer cells; assay type: cell-based, human; settings: PC-3 cells, 0.01 to 300 μM, read-out: IC50 to reduce PC-3 cell number
[9] = tested on: HBsAg secreted by HepG2.2.15 cells; assay: HBsAg secreted by HepG2.2.15 cells (ELISA); assay type: cell-based, hepatitis B virus; settings: 3d
Description: (§1) The levels of HbsAg and HbeAg in chemical-treated HepG2.2.15 cells were detected by enzyme-linked immunosorbent assay (ELISA).

[10] = tested on: HBeAg secreted by HepG2.2.15 cells; assay: HBeAg secreted by HepG2.2.15 cells (ELISA); assay type: cell-based, hepatitis B virus; settings: 3d
Description: as §1

[11] = HL-7002 cells, study with carboplatin and 5-FU (FIG. 7)
[12] = A498 cells, MTS, 0.01 to 300 uM, read-out: IC50 to reduce A498 cell number
[13] = read-out: IC50 in HEK293 cells, HEK293 cells, study with carboplatin and 5-FU (FIG. 8)
[14] = ACHN cells, MTS, 0.01 to 300 uM
[15] = HL-7002 cells, study with docetaxel and cisplatin (FIG. 3)
[16] = HL-7002 cells, similar conditions
[17] = HEK293 cells, similar conditions

**Q.** What does the source list for `O=c1[nH]cc(F)c(=O)[nH]1` [5-FU, fluorouracil, reference compound]?
**A.** IC50 ([1]; Homo sapiens, Hepatocyte): 45 µM; IC50 ([2]; Homo sapiens, A498, read-out: IC50 to reduce A498 cell number): 18.2 µM; IC50 ([3]; Homo sapiens, HEK293, read-out: IC50 in HEK293 cells): 356 µM; IC50 ([4]; Homo sapiens, ACHN): 6.45 µM

**Q.** Which IC50 [1, 11] does the source give for `N.N.O=C([O-])C1(C(=O)[O-])CCC1.[Pt+2]` [carboplatin, reference compound] here?
**A.** Its IC50 is 34 µM.

**Q.** What about the IC50 [2, 12] of the same compound?
**A.** The IC50 was 14.7 µM.

**Q.** And the water solubility (Water solubility)?
**A.** Its water solubility is 18 mg/mL.

**Q.** And the IC50 [3, 13]?
**A.** The IC50 was 237 µM.

**Q.** And the IC50 [4, 14]?
**A.** Its IC50 is 11 µM.

**Q.** What does the source list for `N.N.[Cl][Pt][Cl]` [cisplatin, reference compound]?
**A.** IC50 ([5]; read-out: IC50 in HEK293 cells, study with docetaxel and cisplatin (FIG. 4)): 6.9 µM; IC50 [6]: 2.25 µM; IC50 [7, 15]: 2.01 µM; IC50 [8]: 2.49 µM

**Q.** Which “toxicity to HEK293 cells” value [5] does the source give for `CC(=O)O[C@@]12CO[C@@H]1C[C@H](O)[C@@]1(C)C(=O)[C@H](O)C3=C(C)[C@@H](OC(=O)[C@H](O)[C@@H](NC(=O)OC(C)(C)C)c4ccccc4)C[C@@](O)([C@@H](OC(=O)c4ccccc4)[C@H]21)C3(C)C` [docetaxel, reference compound] here?
**A.** The value was “strong toxicity”.

**Q.** And the IC50 ([7]; Homo sapiens, Hepatocyte)?
**A.** Its IC50 is 0.095 µM.

**Q.** Which “inhibition rate HbsAg” value ([9]; 3.125 μg/mL) does the source give for “carboplatin cis-cyclobutane-1,2-dicarboxylic acid co-crystal [CBCBP]” here?
**A.** Its value is 19.5%.

**Q.** What about the “inhibition rate HbsAg” value ([9]; 6.25 μg/mL) of the same compound?
**A.** The value was 23.6%.

**Q.** And the “inhibition rate HbsAg” value ([9]; 12.5 μg/mL)?
**A.** The value was 37.3%.

**Q.** What about the “inhibition rate HbsAg” value ([9]; 25 μg/mL) of the same compound?
**A.** Its value is 48.5%.

**Q.** And the “toxicity to HEK293 cells” value [5]?
**A.** The value was “no toxicity”.

**Q.** What about the IC50 [6] of the same compound?
**A.** Its IC50 is ~19.6 µM.

**Q.** What about the “toxicity of CBCBP relative to cisplatin” value [7, 16] of the same compound?
**A.** Its value is “about 1/10”.

**Q.** And the “toxicity of CBCBP relative to docetaxel” value [7, 16]?
**A.** Its value is “about 1/216”.

**Q.** And the IC50 [7, 15]?
**A.** Its IC50 is ~20.5 µM and 20.5 µM.

**Q.** And the “toxicity of CBCBP relative to 5-FU” value [1, 16]?
**A.** The value was “about ⅛”.

**Q.** What about the “toxicity of CBCBP relative to carboplatin” value [1, 16] of the same compound?
**A.** Its value is “about 1/10”.

**Q.** And the IC50 [1, 11]?
**A.** Its IC50 is 351 µM and ~351 µM.

**Q.** What about the IC50 [2, 12] of the same compound?
**A.** Its IC50 is ~18.4 µM and 18.4 µM.

**Q.** And the “inhibition rate HbeAg” value ([10]; 3.125 μg/mL)?
**A.** Its value is 0.6%.

**Q.** And the “inhibition rate HbeAg” value ([10]; 6.25 μg/mL)?
**A.** The value was 25.0%.

**Q.** What about the “inhibition rate HbeAg” value ([10]; 12.5 μg/mL) of the same compound?
**A.** The value was 25.3%.

**Q.** And the “inhibition rate HbeAg” value ([10]; 25 μg/mL)?
**A.** Its value is 28.5%.

**Q.** And the water solubility (Water solubility)?
**A.** The water solubility was ~30 mg/mL.

**Q.** What about the “toxicity of CBCBP relative to 5-FU” value [3, 17] of the same compound?
**A.** Its value is “about ¼”.

**Q.** And the “toxicity of CBCBP relative to carboplatin” value [3, 17]?
**A.** Its value is “about ⅕”.

**Q.** And the IC50 [3, 13]?
**A.** The IC50 was 1200 µM and ~1200 µM.

**Q.** What about the IC50 [4, 14] of the same compound?
**A.** The IC50 was 11.6 µM and ~11.6 µM.

**Q.** And the IC50 [8]?
**A.** Its IC50 is ~17.6 µM and 17.6 µM.
